We go through nine molecules from PubChem BioAssay (NCI).

Structures are written as SMILES.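 Growth conditions: 96-well plates. Treatment: test compound, 48 hours, 5 concentrations. Analysis: linear interpolation between bracketing concentrations; unreached endpoints set to highest concentration. TGI: total growth inhibition.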

Test systems include NCI-H522 lung; BT-549 breast; EKVX NSCLC; A549 NSCLC; SW-620 colon; SF-539 CNS; MALME-3M melanoma; OVCAR-3 ovarian; MDA-MB-231 breast; UACC-257 melanoma; MOLT-4 leukemia; HCT-15 colon; U251 CNS; RPMI-8226 leukemia; HL-60(TB) leukemia; HCC-2998 colon; A498 renal.
What all share (test): growth of human tumour cells (NCI), 48 h

`O=C(CSCC(=O)N/N=C\c1ccc(-c2ccccc2)cc1)N/N=C\c1ccc(-c2ccccc2)cc1`: the TGI with NCI-H522 lung is 37.2 µM; with BT-549 breast, 66.3 µM; in the assay with EKVX NSCLC it was > 100 µM; in the assay with A549 NSCLC it was 54.4 µM; with SW-620 colon, 38.4 µM; in the assay with SF-539 CNS, 37.9 µM. The TGI is 64.1 µM in the assay with MALME-3M melanoma; 30 µM in the assay with OVCAR-3 ovarian; 25.2 µM in the assay with MDA-MB-231 breast; > 100 µM in the assay on UACC-257 melanoma; > 100 µM with MOLT-4 leukemia; > 100 µM in the assay with HCT-15 colon. In the assay with U251 CNS, the TGI was 31.5 µM.

In the case of `Cn1c(-c2cccs2)cc(-c2cccs2)c1-c1ccsc1`, the TGI in the assay with BT-549 breast, in the assay with EKVX NSCLC, in the assay with A549 NSCLC, with SW-620 colon, with SF-539 CNS and with RPMI-8226 leukemia was > 100 µM each time. For the same molecule, the TGI in the assay with OVCAR-3 ovarian is 75.2 µM; in the assay on HL-60(TB) leukemia, > 100 µM; with HCC-2998 colon it was > 100 µM; in the assay on MDA-MB-231 breast, > 100 µM; with UACC-257 melanoma it was > 100 µM; in the assay with MOLT-4 leukemia, > 100 µM. Further, the TGI in the assay on HCT-15 colon, in the assay on A498 renal and in the assay on U251 CNS was > 100 µM throughout.

In the case of `Cc1nnc2n1-c1ccccc1C(=S)N1CSCC21` (stereo unspecified), the TGI in the assay with NCI-H522 lung, in the assay on BT-549 breast, in the assay with EKVX NSCLC, in the assay on A549 NSCLC, in the assay on SW-620 colon and in the assay with MALME-3M melanoma was > 100 µM in each case. The TGI in the assay on RPMI-8226 leukemia, in the assay on OVCAR-3 ovarian, with HCC-2998 colon, with MDA-MB-231 breast, in the assay with UACC-257 melanoma and with MOLT-4 leukemia was > 100 µM each time. In addition, the TGI in the assay with HCT-15 colon, with A498 renal and with U251 CNS was > 100 µM in each case.

For the molecule `COC(=O)c1csc(-c2nc(CCNC(=O)OC(C)(C)C)sc2Br)n1`, the TGI in the assay with BT-549 breast, in the assay with EKVX NSCLC, in the assay with A549 NSCLC, in the assay with SW-620 colon, with SF-539 CNS and in the assay on MALME-3M melanoma was > 100 µM throughout. Further, the TGI in the assay on RPMI-8226 leukemia, with OVCAR-3 ovarian, in the assay with HL-60(TB) leukemia, in the assay on HCC-2998 colon, in the assay with UACC-257 melanoma and with MOLT-4 leukemia was > 100 µM throughout. For the same molecule, the TGI in the assay on HCT-15 colon, in the assay with A498 renal and in the assay on U251 CNS was > 100 µM throughout.

In the case of `C=CC[C@H]1[C@H](O[Si](C)(C)C(C)(C)C)C=CC(=O)[C@@H]1CC(=O)N(Cc1ccccc1)Cc1ccccc1`, the TGI is > 100 µM in the assay on NCI-H522 lung; 51.6 µM in the assay on BT-549 breast; > 100 µM in the assay on EKVX NSCLC; > 100 µM in the assay on A549 NSCLC; > 100 µM with SW-620 colon; > 100 µM in the assay with SF-539 CNS. For the same molecule, the TGI with RPMI-8226 leukemia was > 100 µM; in the assay with OVCAR-3 ovarian, 67 µM; in the assay with HL-60(TB) leukemia, 36.5 µM; in the assay with HCC-2998 colon, 73.6 µM; with MDA-MB-231 breast, 41.2 µM; with UACC-257 melanoma it was 65.8 µM. The TGI in the assay with MOLT-4 leukemia is > 100 µM; in the assay on HCT-15 colon, 35.6 µM; in the assay on A498 renal it was > 100 µM; in the assay on U251 CNS it was > 100 µM.

Take `CN1CN(c2ccccc2)C2(CCN(CCc3csc4ccccc34)CC2)C1=O`: the TGI with NCI-H522 lung was found to be 34.4 µM; in the assay on BT-549 breast it was 17.7 µM; with EKVX NSCLC, 43 µM; with A549 NSCLC it was 64.2 µM; with SW-620 colon, 39.3 µM; in the assay on SF-539 CNS, 23 µM. For the same molecule, the TGI in the assay with MALME-3M melanoma turned out to be 29.1 µM; in the assay with RPMI-8226 leukemia it was 37.4 µM; in the assay with OVCAR-3 ovarian, 26.6 µM; with HL-60(TB) leukemia it was 31.2 µM; with UACC-257 melanoma, 28.4 µM; in the assay on MOLT-4 leukemia, 41.9 µM. For the same molecule, the figures for the TGI in the assay with HCT-15 colon and with U251 CNS were 51.5 µM and 29.8 µM, respectively.

For the molecule `CNC1=CC(=O)C2=C(C1=O)[C@H]1CC[C@]3(C)C(=O)CC[C@H]3[C@@H]1CC2`, the TGI in the assay with BT-549 breast is 36 µM; with EKVX NSCLC, 29.9 µM; with A549 NSCLC it was 49.9 µM; in the assay on SW-620 colon it was > 51.6 µM; in the assay on SF-539 CNS, 32.3 µM; in the assay on RPMI-8226 leukemia, 48.5 µM. The TGI in the assay with OVCAR-3 ovarian is 9.3 µM; with HCC-2998 colon, 31.7 µM; in the assay on MDA-MB-231 breast it was > 64.8 µM; in the assay on UACC-257 melanoma, 28.8 µM; with MOLT-4 leukemia, > 49.1 µM; with HCT-15 colon, 27.5 µM. The TGI in the assay with A498 renal is 43.4 µM; in the assay with U251 CNS, > 60.2 µM.

Consider `COc1ccc(CCNC(=O)Cc2cc(OC)c(OC)cc2CO)cc1OC`, for which the TGI in the assay with NCI-H522 lung, in the assay with BT-549 breast, in the assay on EKVX NSCLC, in the assay with A549 NSCLC, in the assay with SW-620 colon and with SF-539 CNS was > 100 µM in each case. Besides, the TGI in the assay with RPMI-8226 leukemia, with OVCAR-3 ovarian, in the assay with HL-60(TB) leukemia, in the assay on HCC-2998 colon, with MDA-MB-231 breast and with UACC-257 melanoma was > 100 µM throughout. Further, the TGI in the assay on MOLT-4 leukemia, in the assay on HCT-15 colon, in the assay with A498 renal and in the assay with U251 CNS was > 100 µM each time.

Turning to `CCOC(=O)C(NC(=O)Nc1ccc(Cl)c(Cl)c1)C(F)(F)F` (stereo unspecified), the TGI in the assay on BT-549 breast, in the assay with EKVX NSCLC, with A549 NSCLC, in the assay on SW-620 colon, in the assay with SF-539 CNS and in the assay with RPMI-8226 leukemia was > 100 µM each time. Further, the TGI with HL-60(TB) leukemia, in the assay with HCC-2998 colon, with UACC-257 melanoma, in the assay with MOLT-4 leukemia, with HCT-15 colon and with A498 renal was > 100 µM in each case. The TGI in the assay with U251 CNS was > 100 µM.
